Two compounds from the NIST ThermoML archive (doi:10.1021/je700578f) can be followed below.

Numbers after ± are expanded uncertainties.

The conditions of the data set: Maximal bubble pressure.

The surface tension liquid-gas is the work needed to enlarge the surface of a liquid by unit area.

Turning to `O=C(OCc1ccccc1)c1ccccc1` [benzyl benzoate], the surface tension liquid-gas (353.15 K) was found to be 39.6 ± 1.6 mN/m; the surface tension liquid-gas (373.15 K) amounted to 37.53 ± 1.5 mN/m; the surface tension liquid-gas (393.15 K) was found to be 35.33 ± 1.4 mN/m; the surface tension liquid-gas (413.15 K) is listed as 33.3 ± 1.4 mN/m; the surface tension liquid-gas (433.15 K) stood at 31.1 ± 1.3 mN/m; the surface tension liquid-gas (453.15 K) is on record as 28.95 ± 1.2 mN/m. Besides, the surface tension liquid-gas (473.15 K) is listed as 26.8 ± 1.1 mN/m.

Regarding `CO` [methanol], the surface tension liquid-gas by setting is: (303.15 K) 21.75 ± 0.89 mN/m; (313.15 K) 20.9 ± 0.86 mN/m; (323.15 K) 20.04 ± 0.82 mN/m; (333.15 K) 19.18 ± 0.79 mN/m; (343.15 K) 18.32 ± 0.75 mN/m.
